Laboratory results as given in patent publication EP4722262A1, “PHOTOCURABLE COMPOSITION, THREE-DIMENSIONAL SHAPED OBJECT, CASTING MOLD, METHOD FOR PRODUCING CURED OBJECT, AND METHOD FOR PRODUCING DENTAL PROSTHESIS” (Mitsui Chemicals, Inc., priority 2023, dated 2025).

Assay: Viscosity at 25°C of manufactured monomers
Format: physicochemical

SMILES: C=CC(=O)OCCOC(=O)NCCC(C)CC(C)(C)CNC(=O)OCCOC(=O)C=C (stereo not shown) [SUA-001]
- viscosity at 25°C: 7,100 mPa·s
